Active and inactive are the calls of the source.
Columns and labels:
[1] = target: Dual specificity protein phosphatase 3 (Homo sapiens, UniProt P51452); assay: VHR phosphatase inhibition, dose response, selectivity assay for STEP inhibitor project, biochemical (AID 602374); assay type: functional; conditions: read-out: IC50_Mean
[2] = target: Tyrosine-protein phosphatase non-receptor type 11 (Homo sapiens, UniProt Q06124); assay: SHP2 phosphatase inhibition, dose response, selectivity assay for STEP inhibitor project, biochemical (AID 602367); assay type: functional; conditions: read-out: IC50_Mean
[3] = target: Tyrosine-protein phosphatase non-receptor type 5 (Homo sapiens, UniProt P54829); assay: STEP phosphatase inhibitors, confirmation, biochemical, fluorescence intensity, uHTS hits (AID 602372); assay type: functional; conditions: read-out: IC50_Mean
[4] = target: Adenosylmethionine-8-amino-7-oxononanoate aminotransferase (Mycobacterium tuberculosis, UniProt P9WQ81); assay: Mycobacterium tuberculosis BioA enzyme inhibitor Measured in Biochemical System Using Plate Reader - 2163-02_Inhibitor_Dose_CherryPick_Activity.; assay type: functional, Mycobacterium tuberculosis UT205
Insulin-degrading enzyme [5] = target: T1, Insulin-degrading enzyme (Homo sapiens, UniProt P14735); assay: activators of recombinant IDE enzyme, dose response, counter-screen for IDE activator project, biochemical, fluorescence polarization (AID 588681)
T1 sequence (P14735 whole entry): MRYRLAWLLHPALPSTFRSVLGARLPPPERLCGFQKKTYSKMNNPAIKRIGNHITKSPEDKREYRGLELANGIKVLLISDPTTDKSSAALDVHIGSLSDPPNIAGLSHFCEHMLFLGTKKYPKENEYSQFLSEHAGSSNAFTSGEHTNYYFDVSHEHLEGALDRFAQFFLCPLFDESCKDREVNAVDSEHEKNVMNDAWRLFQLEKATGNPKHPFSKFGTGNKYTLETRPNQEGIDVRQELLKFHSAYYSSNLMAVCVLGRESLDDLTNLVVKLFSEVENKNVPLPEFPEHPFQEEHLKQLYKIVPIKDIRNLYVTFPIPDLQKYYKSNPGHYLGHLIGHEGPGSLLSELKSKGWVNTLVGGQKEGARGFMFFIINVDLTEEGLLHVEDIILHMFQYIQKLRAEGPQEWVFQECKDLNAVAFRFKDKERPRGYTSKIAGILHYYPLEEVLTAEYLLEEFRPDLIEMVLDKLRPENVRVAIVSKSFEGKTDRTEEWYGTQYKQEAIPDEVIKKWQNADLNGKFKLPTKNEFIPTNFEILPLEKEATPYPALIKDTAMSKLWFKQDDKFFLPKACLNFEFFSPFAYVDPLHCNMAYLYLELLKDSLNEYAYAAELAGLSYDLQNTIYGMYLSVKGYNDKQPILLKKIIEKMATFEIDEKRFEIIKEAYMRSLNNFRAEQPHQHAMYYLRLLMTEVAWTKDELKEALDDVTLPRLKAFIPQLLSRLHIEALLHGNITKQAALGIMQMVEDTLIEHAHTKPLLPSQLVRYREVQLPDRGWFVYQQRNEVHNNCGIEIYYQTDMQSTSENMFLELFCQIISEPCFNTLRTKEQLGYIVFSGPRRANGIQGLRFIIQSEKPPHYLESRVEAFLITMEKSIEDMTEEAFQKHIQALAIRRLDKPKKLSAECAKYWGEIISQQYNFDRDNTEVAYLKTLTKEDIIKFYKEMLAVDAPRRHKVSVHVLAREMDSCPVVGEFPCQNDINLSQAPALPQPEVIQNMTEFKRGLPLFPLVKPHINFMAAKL

Insulin-degrading enzyme [6] = target: T1, Insulin-degrading enzyme; assay: activators of endogenous IDE in HEK cells, dose response, cell-based, fluorescence polarization (AID 588439); assay type: functional
HEK293 [7] = assay: optical interference in Abeta FP readout, dose response, artefact control for IDE activator project, biochemical, fluorescence polarization (AID 588442); assay type: functional, cell-based; conditions: Homo sapiens
HEK293 [8] = assay: HEK cell cytotoxicity by LDH release, dose response, cytotoxicity control for IDE activator project, fluorescence, HEK cells (AID 588440); assay type: functional, cell-based; conditions: Homo sapiens;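 also: cytotoxicity by LDH release measuring loss of membrane integrity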
[9] = target: T2, Carboxy-terminal domain RNA polymerase II polypeptide A small phosphatase 1 (Homo sapiens, UniProt Q9GZU7); assay: inhibitors of CTDSP1, concentration-response testing, biochemical assay, absorbance-based, actives from ultra-high-throughput screening (AID 540297); assay type: functional
T2 sequence (Q9GZU7 whole entry): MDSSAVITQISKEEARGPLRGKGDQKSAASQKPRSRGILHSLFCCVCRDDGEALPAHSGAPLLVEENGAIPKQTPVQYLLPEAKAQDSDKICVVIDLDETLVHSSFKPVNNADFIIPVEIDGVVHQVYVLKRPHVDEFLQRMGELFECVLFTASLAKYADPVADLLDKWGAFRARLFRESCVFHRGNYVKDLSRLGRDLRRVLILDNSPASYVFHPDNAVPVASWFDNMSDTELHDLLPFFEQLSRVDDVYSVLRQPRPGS

Caspase-6 = target: T3, Caspase-6 (Homo sapiens, UniProt P55212); assay: human caspase-6 inhibitors, dose response, biochemical, VEID-R110 fluorescence, cherry-pick (AID 720632)
T3 sequence (P55212 whole entry): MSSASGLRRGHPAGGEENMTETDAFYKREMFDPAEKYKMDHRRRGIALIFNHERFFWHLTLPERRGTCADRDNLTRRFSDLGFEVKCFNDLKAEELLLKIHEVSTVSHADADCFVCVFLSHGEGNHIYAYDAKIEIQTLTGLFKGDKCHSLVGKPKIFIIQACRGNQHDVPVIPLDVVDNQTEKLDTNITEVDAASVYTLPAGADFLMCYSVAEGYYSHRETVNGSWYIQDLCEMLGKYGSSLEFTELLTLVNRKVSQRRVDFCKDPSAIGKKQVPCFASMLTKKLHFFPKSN

[10] = target: T4, Nuclear receptor subfamily 0 group B member 1 (Homo sapiens, UniProt P51843); assay: Luminescence-based cell-based high throughput dose response assay for inhibitors of the orphan nuclear receptor subfamily 0, group B, member 1 (DAX1; NR0B1). [Related pubchem assays (depositor defined):AID504766, AID504790]; assay type: functional
T4 sequence (P51843 whole entry): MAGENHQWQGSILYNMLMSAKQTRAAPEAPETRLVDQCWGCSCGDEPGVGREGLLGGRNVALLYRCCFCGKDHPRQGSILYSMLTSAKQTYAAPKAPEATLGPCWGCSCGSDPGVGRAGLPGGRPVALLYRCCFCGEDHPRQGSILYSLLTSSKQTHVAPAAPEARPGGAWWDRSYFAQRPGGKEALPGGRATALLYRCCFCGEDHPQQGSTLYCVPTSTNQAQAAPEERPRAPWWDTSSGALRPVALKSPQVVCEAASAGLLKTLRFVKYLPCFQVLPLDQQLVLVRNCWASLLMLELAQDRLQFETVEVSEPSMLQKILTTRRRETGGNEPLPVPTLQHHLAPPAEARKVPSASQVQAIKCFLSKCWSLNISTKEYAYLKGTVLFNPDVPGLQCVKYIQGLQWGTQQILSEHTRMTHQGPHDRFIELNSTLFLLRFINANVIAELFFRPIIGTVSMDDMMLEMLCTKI

HEK293 [11] = assay: cells; assay type: functional, cell-based; conditions: Homo sapiens
INS1 = assay: beta cell apoptosis inhibitors, cytokine rescue, dose response, luminescence, retest (AID 449756); assay type: functional, cell-based; conditions: Rattus norvegicus;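 also: cell death triggered by IL-1 beta plus TNF-alpha plus IFN-gamma mixture; protective hits raise ATP signal compared with cytokine alone wells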
Nonstructural protein 1 = Nonstructural protein 1 (Influenza A virus, UniProt Q194T2); assay type: functional, Influenza A virus (A/California/07/2009(H1N1))
[12] = inhibitors of intracellular T. cruzi replication, confirmation, NIH3T3 host cells, beta-gal luminescence (AID 2044); assay type: functional, cell-based;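 also: intracellular parasites grown in NIH/3T3 mouse fibroblasts as host cells; luminescent beta-galactosidase reporter signal from transgenic T. cruzi replicating inside host cells; inhibitors lower the luminescence signal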
[13] = cytotoxicity toward NIH3T3 fibroblasts, dose response, counter-screen, cell-based, ATP luminescence, mouse fibroblasts (AID 2010); assay type: functional;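 also: cells exposed to compound for about 90 hours before reading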
[14] = target: Photoreceptor-specific nuclear receptor (Homo sapiens, UniProt Q9Y5X4); assay type: functional, cell-based;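 also: CHO-S cells with Gal4-NCOR and VP16-NR2E3 two-hybrid luciferase reporter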
HEK293 [15] = assay: inhibitors of LMP1-driven NF-kB reporter, dose response, cell-based, HEK293, luciferase, cherry-pick (AID 588343); assay type: functional; conditions: Homo sapiens
[16] = AlphaScreen signal interference compounds, dose response, artefact control for ARNT-TACC3 interaction inhibitor project, biochemical, luminescence, cherry-pick (AID 651705); assay type: functional;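 also: AlphaScreen bead proximity signal that flags compounds interfering with the detection technology; potency reflects signal decrease which marks the compound as an assay artifact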

Tyrosine-protein phosphatase non-receptor type 5, sequence (P54829 whole entry): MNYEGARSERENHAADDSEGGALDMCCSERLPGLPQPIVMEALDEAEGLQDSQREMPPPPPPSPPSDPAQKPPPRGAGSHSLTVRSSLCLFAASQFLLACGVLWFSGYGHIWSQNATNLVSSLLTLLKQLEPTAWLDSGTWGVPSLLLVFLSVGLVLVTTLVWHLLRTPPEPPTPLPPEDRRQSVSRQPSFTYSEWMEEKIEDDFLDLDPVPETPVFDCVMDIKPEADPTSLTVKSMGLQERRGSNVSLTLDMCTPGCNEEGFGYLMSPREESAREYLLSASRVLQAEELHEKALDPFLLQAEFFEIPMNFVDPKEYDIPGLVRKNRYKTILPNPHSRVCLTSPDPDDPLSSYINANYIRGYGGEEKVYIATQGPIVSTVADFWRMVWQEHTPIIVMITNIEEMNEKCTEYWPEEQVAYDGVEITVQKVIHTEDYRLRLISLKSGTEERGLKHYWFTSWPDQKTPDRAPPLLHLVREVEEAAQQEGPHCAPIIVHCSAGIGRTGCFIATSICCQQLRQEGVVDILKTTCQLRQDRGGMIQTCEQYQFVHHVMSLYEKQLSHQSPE
Dual specificity protein phosphatase 3, sequence (P51452 whole entry): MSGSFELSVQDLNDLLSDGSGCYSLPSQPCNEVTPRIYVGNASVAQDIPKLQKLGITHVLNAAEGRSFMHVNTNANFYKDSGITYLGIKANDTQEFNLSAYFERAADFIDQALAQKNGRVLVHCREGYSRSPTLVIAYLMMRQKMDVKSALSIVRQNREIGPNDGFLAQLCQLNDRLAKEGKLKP
Adenosylmethionine-8-amino-7-oxononanoate aminotransferase, sequence (P9WQ81 whole entry): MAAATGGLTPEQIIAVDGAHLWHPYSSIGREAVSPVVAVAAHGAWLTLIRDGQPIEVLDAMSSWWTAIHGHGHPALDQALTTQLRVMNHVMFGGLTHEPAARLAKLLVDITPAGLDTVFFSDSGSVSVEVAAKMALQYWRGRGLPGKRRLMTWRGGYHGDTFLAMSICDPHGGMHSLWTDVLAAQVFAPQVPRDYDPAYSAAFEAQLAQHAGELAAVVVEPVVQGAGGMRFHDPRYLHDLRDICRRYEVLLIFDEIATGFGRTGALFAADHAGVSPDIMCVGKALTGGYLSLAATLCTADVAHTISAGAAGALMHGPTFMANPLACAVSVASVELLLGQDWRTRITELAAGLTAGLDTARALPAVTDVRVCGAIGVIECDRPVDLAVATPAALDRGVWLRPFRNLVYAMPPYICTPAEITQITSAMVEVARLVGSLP
Tyrosine-protein phosphatase non-receptor type 11, sequence (Q06124 whole entry): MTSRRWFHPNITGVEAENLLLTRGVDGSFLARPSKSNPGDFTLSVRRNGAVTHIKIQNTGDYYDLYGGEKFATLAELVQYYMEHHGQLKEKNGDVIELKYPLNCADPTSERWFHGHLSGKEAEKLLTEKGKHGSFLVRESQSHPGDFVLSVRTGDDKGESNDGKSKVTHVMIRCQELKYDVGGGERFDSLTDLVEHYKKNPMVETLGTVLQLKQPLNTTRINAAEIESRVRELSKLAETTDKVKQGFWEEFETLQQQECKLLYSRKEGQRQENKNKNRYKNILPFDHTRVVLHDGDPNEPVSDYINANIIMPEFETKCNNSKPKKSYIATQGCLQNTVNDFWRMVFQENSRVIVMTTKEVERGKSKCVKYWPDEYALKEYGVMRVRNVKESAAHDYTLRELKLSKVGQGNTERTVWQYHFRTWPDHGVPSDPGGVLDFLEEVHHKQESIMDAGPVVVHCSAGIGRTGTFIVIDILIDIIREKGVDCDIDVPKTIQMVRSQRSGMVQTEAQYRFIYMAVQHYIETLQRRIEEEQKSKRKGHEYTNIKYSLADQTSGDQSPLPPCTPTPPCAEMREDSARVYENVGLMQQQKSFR
Photoreceptor-specific nuclear receptor, sequence (Q9Y5X4 whole entry, the tested form may be a part): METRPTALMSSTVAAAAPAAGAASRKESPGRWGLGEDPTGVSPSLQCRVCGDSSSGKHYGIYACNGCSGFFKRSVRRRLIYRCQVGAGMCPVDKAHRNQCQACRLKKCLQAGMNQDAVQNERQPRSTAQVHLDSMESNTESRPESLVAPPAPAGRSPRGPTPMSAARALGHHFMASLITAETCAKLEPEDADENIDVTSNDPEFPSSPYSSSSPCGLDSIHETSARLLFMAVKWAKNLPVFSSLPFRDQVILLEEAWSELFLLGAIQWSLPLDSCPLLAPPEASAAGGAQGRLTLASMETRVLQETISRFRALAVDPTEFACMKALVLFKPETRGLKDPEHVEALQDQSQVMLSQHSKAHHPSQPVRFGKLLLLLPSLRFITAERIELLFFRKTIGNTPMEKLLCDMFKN
Nonstructural protein 1, sequence (Q194T2 whole entry): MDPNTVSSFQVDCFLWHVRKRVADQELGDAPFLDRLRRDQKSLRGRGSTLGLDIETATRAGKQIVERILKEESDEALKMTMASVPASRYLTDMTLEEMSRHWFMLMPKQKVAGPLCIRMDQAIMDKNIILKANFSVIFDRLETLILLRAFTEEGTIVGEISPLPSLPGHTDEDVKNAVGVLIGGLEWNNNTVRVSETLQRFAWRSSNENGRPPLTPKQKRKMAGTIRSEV

With `Cc1ccc(N=C(S)N(CCN(C)C)Cc2cccs2)c(C)c1` the IC50 [1] was 1.36 µM (active), the IC50 [2] was 3.37 µM (active) and the IC50 [3] was 24.6 µM (inactive).
In the case of `O=C(C1CC1)N1CC[C@@H]2[C@H]1c1cc(Br)ccc1N[C@@H]2CO`, the AC50 [4] is reported as 7.01 µM (active).
With `Cn1c(CN2CCOCC2)nnc1SCC(=O)Nc1ccc([N+](=O)[O-])cc1O` the EC50 (Insulin-degrading enzyme [5]) was > 54.7 µM (inactive), the EC50 (Insulin-degrading enzyme [6]) was > 54.7 µM (inactive) and the EC50 (HEK293 [7]) was > 54.7 µM (inactive). For the same compound, the IC50 (HEK293 [8]) was > 89.2 µM (inactive).
In the case of `O=S(=O)(Nc1ccccc1)c1cccc2nsnc12`, the IC50 [1] is reported as 2.91 µM (active), the IC50 [2] is reported as 3.9 µM (active) and the IC50 [9] is reported as 6.86 µM (active). The AC50 (Caspase-6) was 8.86 µM (active) and the IC50 [3] was 35.1 µM (inactive).
With `CN1c2ccc(-c3cccc(F)c3)cc2[C@H]2[C@H](CCN2C(=O)c2ccncc2)[C@@H]1CO` the AC50 [4] was 7.24 µM (active).
In the case of `Cc1[nH]c2ccccc2c1/C=N/NC(=O)c1cccc(F)c1`, the IC50 [10] is reported as > 67.5 µM (inactive) and the IC50 (HEK293 [11]) is reported as > 67.5 µM (inactive).
With `CCC(C)Nc1nc(-c2ccccn2)nc2ccccc12` (stereo not drawn) the AC50 (INS1) was 2.89 µM (active), the IC50 (Nonstructural protein 1) was 25.5 µM (active) and the EC50 [12] was 1.33 µM (active). For the same compound, the EC50 [13] was > 30 µM (not active), the IC50 [14] was 4.14 µM (active) and the AC50 (HEK293 [15]) was 4.94 µM (active). For the same compound, the AC50 [16] was 117 µM (active).

— ChEMBL document CHEMBL1201862, “PubChem BioAssay data set” (2004)
